Test results: PMC6761804 (ACS Omega, 2019)

System: colorectal tumor of Apc^min/+ genetically engineered CRC mouse
Assay type: in vivo, Apc^min/+ mice
Settings: i.v. about 3.7 MBq, PET/CT after 1 h (Figure S4)

OC[C@H]1OC(O)[C@H](F)[C@@H](O)[C@@H]1O (stereo partly shown) [^18F-FDG, ^18F-Fluorodeoxyglucose, reference compound]
Tumor enrichment in PET/CT (in words): did not show ideal tumor enrichment
